Measured values taken from patent US20130217664A1, “NOVEL COMPOUNDS USEFUL FOR THE TREATMENT OF DEGENERATIVE AND INFLAMMATORY DISEASES” (priority 2012, published 2013).
Read-outs that look alike come from different tables or passages of the source.

What was measured:
CTLL-2 cell line = assay: CTLL2 viability assay; type: cell-based; details: Mus musculus, IL-2 dependent CTLL2 viability, 24 h, ATP-lite
Source text: The protocol describes the methods to analyse the activity of compounds on their ability to sustain the IL2-dependent viability of CTLL2.
Final DMSO concentration was 0.1%.

BA/F3 cell line = assay: BA/F3 viability assay; details: Mus musculus, BaF3, 48 h, read-out: BA/F3 IC50
human TYK2 = target: T1, human TYK2 (Homo sapiens, UniProt P29597); assay: TYK2 inhibition assay; type: biochemical; details: recombinant human TYK2 catalytic domain, polyGT substrate
T1 construct: catalytic domain (amino acids 871-1187; catalog number 08-147); purchased Carna Biosciences 08-147
T1 sequence (P29597 871-1187): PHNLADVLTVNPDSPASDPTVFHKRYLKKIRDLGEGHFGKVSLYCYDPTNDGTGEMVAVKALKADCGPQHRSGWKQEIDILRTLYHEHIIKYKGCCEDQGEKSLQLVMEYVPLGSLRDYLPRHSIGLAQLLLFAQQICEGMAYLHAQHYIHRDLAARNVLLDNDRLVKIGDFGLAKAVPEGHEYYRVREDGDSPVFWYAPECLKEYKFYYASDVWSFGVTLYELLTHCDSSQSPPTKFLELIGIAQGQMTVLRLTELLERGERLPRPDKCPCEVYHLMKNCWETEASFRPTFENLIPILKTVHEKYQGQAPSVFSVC
How it was run: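 Radiometric kinase reaction run 90 min at 30 °C, stopped with phosphoric acid, washed and scintillation-counted.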

human JAK1 = target: T2, human JAK1 (Homo sapiens, UniProt P23458); assay: JAK1 inhibition assay (polyGT substrate / Ulight-JAK1 peptide); type: biochemical; details: recombinant human JAK1 catalytic domain; polyGT or Ulight-JAK1 peptide assay
T2 construct: catalytic domain, amino acids 866-1154; catalog number PV4774; purchased Invitrogen PV4774
T2 sequence (P23458 866-1154): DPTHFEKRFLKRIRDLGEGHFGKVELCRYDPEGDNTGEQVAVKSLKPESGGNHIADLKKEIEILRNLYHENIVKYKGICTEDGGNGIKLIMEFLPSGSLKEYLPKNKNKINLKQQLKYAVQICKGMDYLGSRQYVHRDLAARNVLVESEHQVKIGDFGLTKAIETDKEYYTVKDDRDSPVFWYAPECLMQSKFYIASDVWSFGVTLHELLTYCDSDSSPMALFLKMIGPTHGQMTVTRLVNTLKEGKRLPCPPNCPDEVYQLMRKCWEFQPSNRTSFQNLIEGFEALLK
How it was run: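 Signal scaled between vehicle and 10 μM staurosporine. Radiometric polyGT reactions ran 45 min at 30 °C, counted after phosphoric-acid stop. Ulight peptide reactions ran 60 min at room temperature, fluorescence read after adding Eu-PT66 detection mix with EDTA.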

human JAK3 = target: T3, human JAK3 (Homo sapiens, UniProt P52333); assay: JAK3 inhibition assay; type: biochemical; details: recombinant human JAK3 catalytic domain; polyGT substrate
T3 construct: catalytic domain (amino acids 781-1124; catalog number PV3855); purchased Invitrogen PV3855
T3 sequence (P52333 781-1124): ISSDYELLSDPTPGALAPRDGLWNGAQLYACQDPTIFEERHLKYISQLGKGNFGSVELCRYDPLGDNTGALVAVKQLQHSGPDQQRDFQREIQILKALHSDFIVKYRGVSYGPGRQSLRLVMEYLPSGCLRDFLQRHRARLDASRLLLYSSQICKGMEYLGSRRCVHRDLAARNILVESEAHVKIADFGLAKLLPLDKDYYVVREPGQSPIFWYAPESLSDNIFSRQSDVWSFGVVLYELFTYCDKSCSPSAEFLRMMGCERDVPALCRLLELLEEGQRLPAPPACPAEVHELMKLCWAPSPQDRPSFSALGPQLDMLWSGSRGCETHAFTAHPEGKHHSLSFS
How it was run: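 Radiometric kinase assay: 0.5 ng JAK3 with 2.5 μg polyGT in Tris pH 7.5/MgCl2 buffer, 1 μM ATP plus 0.25 μCi 33P-γ-ATP, 1% DMSO, 45 min at 30 °C, stopped with phosphoric acid.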

[1] = test system: pSTAT1(2)-luciferase reporter in HeLa cells triggered with human OSM; assay: JAK-STAT signalling assay; type: cell-based; details: HeLa cells, pSTAT1(2)-luciferase reporter, human OSM 33 ng/mL, read-out: JAK-STAT IC50
How it was run: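 Compound added 60 min before 33 ng/mL (final) human OSM; after overnight stimulation at 37 °C, luciferase signal from a transiently transfected pSTAT1(2) reporter in HeLa cells was read, with LacZ as internal control. EC50 derived from percent-inhibition dose-response curves.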

human JAK2 = target: T4, human JAK2 (Homo sapiens, UniProt O60674); assay: JAK2 inhibition assay (polyGT substrate / Ulight-JAK1 peptide); type: biochemical; details: recombinant human JAK2 catalytic domain; polyGT or Ulight-JAK1 peptide assay
T4 construct: catalytic domain (amino acids 808-1132; catalog number PV4210); GST; purchased Invitrogen PV4210
T4 sequence (O60674 808-1132): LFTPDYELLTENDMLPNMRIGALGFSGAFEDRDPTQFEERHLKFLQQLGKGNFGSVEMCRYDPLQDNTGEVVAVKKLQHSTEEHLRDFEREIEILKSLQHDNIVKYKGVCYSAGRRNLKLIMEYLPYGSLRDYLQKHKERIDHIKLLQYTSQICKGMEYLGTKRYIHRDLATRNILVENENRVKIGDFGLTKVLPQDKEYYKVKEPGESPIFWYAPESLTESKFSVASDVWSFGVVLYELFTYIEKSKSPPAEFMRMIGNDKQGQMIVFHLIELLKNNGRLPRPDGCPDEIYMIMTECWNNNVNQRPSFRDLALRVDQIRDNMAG
How it was run: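 Two JAK2 formats: a ^33P-ATP polyGT assay (1 μM cold ATP, 90 min, 30° C., cpm read-out) and a Ulight-JAK1 peptide assay read by Europium-anti-phosphotyrosine fluorescence after 60 min at room temperature.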

Row | SMILES | IC50 (BA/F3 cell line) | IC50 (human TYK2) | IC50 (human JAK1) | IC50 (human JAK3) | IC50 ([1]; Homo sapiens, HeLa) | IC50 [1] | IC50 (human JAK2) | IC50 (CTLL-2 cell line)
1 | CCc1cc(-c2cncs2)ccc1N(C)c1cc2c(cn1)ncn2C [Compound 151, N-(2-Ethyl-4-(thiazol-5-yl)phenyl)-N,1-dimethyl-1H-imidazo[4,5-c]pyridin-6-amine] | 1000 to 5000 nM | 0.01 to 100 nM | 0.01 to 100 nM | 0.01 to 100 nM | 1 to 500 nM |  |  | > 1000 nM
2 | CCc1cc(CNC(C)=O)ccc1N(C)c1cc2c(cn1)ncn2C [Compound 182, N-(3-Ethyl-4-(methyl(1-methyl-1H-imidazo[4,5-c]pyridin-6-yl)amino)benzyl)acetamide] | > 5000 nM | 101 to 500 nM | 0.01 to 100 nM | 501 to 1000 nM | > 1000 nM |  |  | > 1000 nM
3 | CCc1cc(C2CCOCC2)ccc1N(C)c1cc2c(cn1)ncn2C [Compound 186, N-(2-Ethyl-4-(tetrahydro-2H-pyran-4-yl)phenyl)-N,1-dimethyl-1H-imidazo[4,5-c]pyridin-6-amine] | 1000 to 5000 nM | 0.01 to 100 nM | 0.01 to 100 nM | 101 to 500 nM | 1 to 500 nM |  |  | > 1000 nM
4 | CCc1cc(CNS(C)(=O)=O)ccc1N(C)c1cc2c(cn1)ncn2C [Compound 190, N-(3-Ethyl-4-(methyl(1-methyl-1H-imidazo[4,5-c]pyridin-6-yl)amino)benzyl)methane sulfonamide] | 1000 to 5000 nM | 0.01 to 100 nM | 0.01 to 100 nM | 0.01 to 100 nM | 1 to 500 nM |  |  | > 1000 nM
5 | CCc1cc(-c2cncc(C(F)(F)F)c2)ccc1N(C)c1cc2c(cn1)ncn2C [Compound 194, N-(2-ethyl-4-(5-(trifluoromethyl)pyridin-3-yl)phenyl)-N,1-dimethyl-1H-imidazo[4,5-c]pyridin-6-amine] | 1000 to 5000 nM | 501 to 1000 nM | 0.01 to 100 nM | > 1000 nM | > 1000 nM |  |  | > 1000 nM
6 | CCc1cc(C2=CCN(C(=O)COC)CC2)ccc1N(C)c1cc2c(cn1)ncn2C [Compound 199, 1-(4-(3-ethyl-4-(methyl(1-methyl-1H-imidazo[4,5-c]pyridin-6-yl)amino)phenyl)-5,6-dihydropyridin-1(2H)-yl)-2-methoxyethanone] | 1000 to 5000 nM | 0.01 to 100 nM | 0.01 to 100 nM | 0.01 to 100 nM | 1 to 500 nM |  |  | > 1000 nM
7 | CCc1cc(-c2cn[nH]c2)ccc1N(C)c1cc2c(cn1)ncn2C [Compound 210, N-(2-ethyl-4-(1H-pyrazol-4-yl)phenyl)-N,1-dimethyl-1H-imidazo[4,5-c]pyridin-6-amine] | 1 to 1000 nM | 0.01 to 100 nM | 0.01 to 100 nM | 0.01 to 100 nM | 1 to 500 nM |  |  | > 1000 nM
8 | CCc1cc(CNS(=O)(=O)C2CC2)ccc1N(C)c1cc2c(cn1)ncn2C [Compound 227, N-(3-ethyl-4-(methyl(1-methyl-1H-imidazo[4,5-c]pyridin-6-yl)amino)benzyl)cyclopro-panesulfonamide] | > 5000 nM | 101 to 500 nM | 0.01 to 100 nM | 501 to 1000 nM |  | 501 to 1000 nM |  | > 1000 nM
9 | CCc1cc(CNS(=O)(=O)CC#N)ccc1N(C)c1cc2c(cn1)ncn2C [Compound 228, 1-cyano-N-(3-ethyl-4-(methyl(1-methyl-1H-imidazo[4,5-c]pyridin-6-yl)amino)benzyl)methane-sulfonamide] | > 5000 nM | 0.01 to 100 nM | 0.01 to 100 nM | 0.01 to 100 nM | 1 to 500 nM |  |  | 1 to 500 nM
10 | CCc1cc(N2CCC(F)(F)C2)ncc1N(C)c1cc2c(cn1)ncn2C [Compound 411, [6-(3,3-Difluoro-pyrrolidin-1-yl)-4-ethyl-pyridin-3-yl]-methyl-(1-methyl-1H-imidazo[4,5-c]pyridin-6-yl)-amine] | 1000 to 5000 nM | 0.01 to 100 nM | 0.01 to 100 nM | 0.01 to 100 nM |  |  | 0.01 to 100 nM | > 1000 nM
11 | CCc1cc(N2CC(F)(F)C2)ncc1N(C)c1cc2c(cn1)ncn2C [Compound 413, [6-(3,3-Difluoro-azetidin-1-yl)-4-ethyl-pyridin-3-yl]-methyl-(1-methyl-1H-imidazo[4,5-c]pyridin-6-yl)-amine] | 1000 to 5000 nM | 0.01 to 100 nM | 0.01 to 100 nM | 101 to 500 nM |  |  | 0.01 to 100 nM | > 1000 nM
12 | CN(c1cc2c(cn1)ncn2C)c1ccc(CNS(C)(=O)=O)cc1OC(F)F [Compound 429, N-{3-Difluoromethoxy-4-[methyl-(1-methyl-1H-imidazo[4,5-c]pyridin-6-yl)-amino]-benzyl}-methanesulfonamide] | > 5000 nM | 101 to 500 nM | 0.01 to 100 nM | 0.01 to 100 nM |  |  | 0.01 to 100 nM | > 1000 nM

Further lines, with some results ahead:

Row | IC50 (BA/F3 cell line) | IC50 (human TYK2) | IC50 (human JAK1) | IC50 (human JAK3) | IC50 ([1]; Homo sapiens, HeLa) | IC50 [1] | IC50 (human JAK2) | SMILES | IC50 (CTLL-2 cell line)
13 | > 5000 nM | 501 to 1000 nM | 0.01 to 100 nM | > 1000 nM |  | > 1000 nM |  | CCc1cc(CNC2COC2)ccc1N(C)c1cc2c(cn1)ncn2C [Compound 167, N-(2-ethyl-4-((oxetan-3-ylamino)methyl)phenyl)-N,1-dimethyl-1H-imidazo[4,5-c]pyridin-6-amine] | > 1000 nM
14 | 1000 to 5000 nM | 0.01 to 100 nM | 0.01 to 100 nM | 101 to 500 nM | 501 to 1000 nM |  |  | CCc1cc(C2=CCN(C(=O)CC#N)CC2)ccc1N(C)c1cc2c(cn1)ncn2C [Compound 195, 3-(4-(3-Ethyl-4-(methyl(1-methyl-1H-imidazo[4,5-c]pyridin-6-yl)amino)phenyl)-5,6-dihydropyridin-1(2H)-yl)-3-oxopropanenitrile] | > 1000 nM
15 | 1000 to 5000 nM | 0.01 to 100 nM | 0.01 to 100 nM | 0.01 to 100 nM | 1 to 500 nM |  |  | CCc1cc(C2=CCN(C(=O)C(F)F)CC2)ccc1N(C)c1cc2c(cn1)ncn2C [Compound 197, 1-(4-(3-ethyl-4-(methyl(1-methyl-1H-imidazo[4,5-c]pyridin-6-yl)amino)phenyl)-5,6-dihydropyridin-1(2H)-yl)-2,2-difluoroethanone] | 501 to 1000 nM
16 | 1 to 1000 nM | 0.01 to 100 nM | 0.01 to 100 nM |  | 1 to 500 nM |  |  | CCc1cc(C2CCN(S(C)(=O)=O)CC2)ccc1N(C)c1cc2c(cn1)ncn2C [Compound 214, N-(2-ethyl-4-(1-(methylsulfonyl)piperidin-4-yl)phenyl)-N,1-dimethyl-1H-imidazo[4,5-c]pyridin-6-amine] | 501 to 1000 nM
17 | > 5000 nM | 0.01 to 100 nM | 0.01 to 100 nM | 0.01 to 100 nM |  |  | 0.01 to 100 nM | CCc1cc(C(C#N)N2CCNC(=O)C2)ccc1N(C)c1cc2c(cn1)ncn2C (centres unmarked) [Compound 410, {3-Ethyl-4-[methyl-(1-methyl-1H-imidazo[4,5-c]pyridin-6-yl)-amino]-phenyl}-(3-oxo-piperazin-1-yl)-acetonitrile] | > 1000 nM
18 | 1000 to 5000 nM | 0.01 to 100 nM | 0.01 to 100 nM | 0.01 to 100 nM |  |  | 0.01 to 100 nM | CN(c1cc2c(cn1)ncn2C)c1ccc(CN(C)S(C)(=O)=O)cc1OC(F)F [Compound 430, N-{3-Difluoromethoxy-4-[methyl-(1-methyl-1H-imidazo[4,5-c]pyridin-6-yl)-amino]-benzyl}-N-methyl-methanesulfonamide] | > 1000 nM
